Legend:
Assay type in all cases: in vivo
Echinochloa crus-galli [1] = assay: Test Example 4: herbicidal effect test by stem and leaf treatment in upland field; details: Echinochloa crus-galli; 120 g per 10 ares; sprayed seven days after sowing, upland soil; 14 days after application; read-out: weed inhibition rate
[2] = test system: Echinochloa crus-galli var. formosensis; assay: Test Example 5: herbicidal effect test by soil application in paddy rice (low dose); details: Echinochloa crus-galli, soil, 336 h; 7.5 g per 10 ares; applied immediately after sowing, flooded pots; 14 days after application; read-out: weed inhibition rate
How it was run: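 Paddy soil in Wagner pots was fertilized (N:P:K 16:16:16), puddled, sown with 30 seeds per weed species at 0–1 cm, then flooded to ~3 cm in a glass greenhouse. Emulsifiable concentrate diluted in water was dropper-applied into floodwater immediately, at 7.5 g active ingredient per 10 ares; duplicates, scored at 14 days.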

Digitaria ciliaris [3] = assay: Test Example 8: herbicidal effect test by stem and leaf treatment in upland field (low dose); details: Digitaria ciliaris; 7.5 g per 10 ares; sprayed seven days after sowing, upland soil; 14 days after application; read-out: weed inhibition rate
Echinochloa crus-galli [4] = assay: as above; details: Echinochloa crus-galli; 7.5 g per 10 ares; sprayed seven days after sowing, upland soil; 14 days after application; read-out: weed inhibition rate
[5] = test system: Echinochloa crus-galli var. formosensis; assay: Test Example 6: herbicidal effect test by application during growth period of paddy rice (low dose); details: Echinochloa crus-galli; 7.5 g per 10 ares; applied seven days after sowing, flooded pots; 14 days after application; read-out: weed inhibition rate
How it was run: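 Formulated compound, diluted in water, was dropped onto flooded pots seven days post-sowing at 7.5 g a.i. per 10 ares. Seeds had been sown 0-1 cm deep in puddled paddy soil under ~3 cm water in a glass greenhouse. Inhibition (%) assessed at 14 days; duplicate pots.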

Digitaria ciliaris [6] = assay: Test Example 4: herbicidal effect test by stem and leaf treatment in upland field; details: Digitaria ciliaris; 120 g per 10 ares; sprayed seven days after sowing, upland soil; 14 days after application; read-out: weed inhibition rate
Digitaria ciliaris [7] = assay: Test Example 7: herbicidal effect test by soil application in upland field (low dose); details: Digitaria ciliaris, 7.5 g per 10 ares, sprayed one day after sowing, 14 days after application, read-out: weed inhibition rate
How it was run: (§1)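 Pre-emergence soil application: upland alluvial loam pots sown with weed seeds mixed into the top 1 cm; one day after sowing, a water-diluted emulsifiable concentrate was sprayed on the soil at 100 L per 10 a, delivering 7.5 g active ingredient per 10 a. Weed inhibition rate (%) scored 14 days after application, duplicate pots.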

Echinochloa crus-galli [8] = assay: as above; details: Echinochloa crus-galli, 7.5 g per 10 ares, sprayed one day after sowing, 14 days after application, read-out: weed inhibition rate
How it was run: as §1

[9] = test system: Echinochloa crus-galli var. formosensis; assay: Test Example 1: herbicidal effect test by soil application in paddy rice; details: Echinochloa crus-galli, soil, 336 h; 120 g active ingredient per 10 ares; applied immediately after sowing, flooded pots; 14 days after application; read-out: weed inhibition rate
How it was run: (§2)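 Pre-emergence paddy soil application, 120 g a.i./10 a, emulsifiable concentrate diluted in water, applied by dropper right after sowing. Seeds (30/species) sown 0–1 cm in puddled, fertilized soil; flooded ~3 cm; glass greenhouse.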

Scirpus juncoides [10] = assay: as above; details: Schoenoplectiella juncoides, soil, 336 h; 120 g active ingredient per 10 ares; applied immediately after sowing, flooded pots; 14 days after application; read-out: weed inhibition rate
How it was run: as §2

Digitaria ciliaris [11] = assay: Test Example 3: herbicidal effect test by soil application in upland field; details: Digitaria ciliaris, 120 g per 10 ares, sprayed one day after sowing, 14 days after application, read-out: weed inhibition rate
How it was run: (§3)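 Weed inhibition (%) was assessed 14 days after treatment, in duplicate per concentration group. Seeds had been mixed into the upper 1 cm of upland alluvial loam, and the soil surface was sprayed one day later with the diluted emulsifiable concentrate at 120 g active ingredient per 10 ares.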

Echinochloa crus-galli [12] = assay: as above; details: Echinochloa crus-galli, 120 g per 10 ares, sprayed one day after sowing, 14 days after application, read-out: weed inhibition rate
How it was run: as §3

[13] = test system: Echinochloa crus-galli var. formosensis; assay: Test Example 2: herbicidal effect test by application during growth period of paddy rice; details: Echinochloa crus-galli; 120 g per 10 ares; applied seven days after sowing, flooded pots; 14 days after application; read-out: weed inhibition rate
How it was run: (§4)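 Paddy soil in Wagner pots was puddled with N:P:K 16:16:16 fertilizer, sown with 30 weed seeds per species at 0–1 cm and flooded to about 3 cm. Seven days after sowing, a water-diluted emulsifiable concentrate was dropped onto the water at 120 g active ingredient per 10 ares. Weed inhibition (%) was scored at 14 days, in duplicate.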

Scirpus juncoides [14] = assay: as above; details: Schoenoplectiella juncoides; 120 g per 10 ares; applied seven days after sowing, flooded pots; 14 days after application; read-out: weed inhibition rate
How it was run: as §4

CC(C)[C@]12C[C@@H](OCc3ccccc3F)[C@](C)(C[C@@H]1C)O2 (racemic) [1-1555, (1SR,2RS,4RS,5SR)-2-[(2-fluorophenyl)methoxy]-1,5-dimethyl-4-isopropyl-7-oxabicyclo[2.2.1]heptane]
≥ 80%: inhibition at 1200 g/ha (Echinochloa crus-galli [1]) | inhibition at 75 g/ha [2] | inhibition at 75 g/ha (Digitaria ciliaris [3]) | inhibition at 75 g/ha (Echinochloa crus-galli [4]) | inhibition at 75 g/ha [5] | inhibition at 1200 g/ha (Digitaria ciliaris [6]) | inhibition at 75 g/ha (Digitaria ciliaris [7]) | inhibition at 75 g/ha (Echinochloa crus-galli [8]) | pest or weed control at 1200 g/ha [9] | pest or weed control at 1200 g/ha (Scirpus juncoides [10]) | inhibition at 1200 g/ha (Digitaria ciliaris [11]) | inhibition at 1200 g/ha (Echinochloa crus-galli [12]) | inhibition at 1200 g/ha [13] | inhibition at 1200 g/ha (Scirpus juncoides [14])

CC(C)[C@]12C[C@@H](OCc3ccccc3)[C@](C)(C[C@@H]1I)O2 [1-740, (1R,2S,4S,5R)-5-benzyloxy-2-iodo-1-isopropyl-4-methyl-7-oxabicyclo[2.2.1]heptane]
≥ 80%: inhibition at 1200 g/ha (Echinochloa crus-galli [1]) | inhibition at 75 g/ha [2] | inhibition at 75 g/ha (Digitaria ciliaris [3]) | inhibition at 75 g/ha (Echinochloa crus-galli [4]) | inhibition at 75 g/ha [5] | inhibition at 1200 g/ha (Digitaria ciliaris [6]) | inhibition at 75 g/ha (Digitaria ciliaris [7]) | inhibition at 75 g/ha (Echinochloa crus-galli [8]) | pest or weed control at 1200 g/ha [9] | pest or weed control at 1200 g/ha (Scirpus juncoides [10]) | inhibition at 1200 g/ha (Digitaria ciliaris [11]) | inhibition at 1200 g/ha (Echinochloa crus-galli [12]) | inhibition at 1200 g/ha [13] | inhibition at 1200 g/ha (Scirpus juncoides [14])

CC(C)C12C=CC(C)(O1)C(OCc1ccccc1)C2 (stereo not drawn) [3-752, 4-methyl-5-phenylmethoxy-1-isopropyl-7-oxabicyclo[2.2.1]hept-2-ene]
≥ 80%: inhibition at 1200 g/ha (Echinochloa crus-galli [1]) | inhibition at 75 g/ha [2] | inhibition at 75 g/ha (Digitaria ciliaris [3]) | inhibition at 75 g/ha (Echinochloa crus-galli [4]) | inhibition at 75 g/ha [5] | inhibition at 1200 g/ha (Digitaria ciliaris [6]) | inhibition at 75 g/ha (Digitaria ciliaris [7]) | inhibition at 75 g/ha (Echinochloa crus-galli [8]) | pest or weed control at 1200 g/ha [9] | pest or weed control at 1200 g/ha (Scirpus juncoides [10]) | inhibition at 1200 g/ha (Digitaria ciliaris [11]) | inhibition at 1200 g/ha (Echinochloa crus-galli [12]) | inhibition at 1200 g/ha [13] | inhibition at 1200 g/ha (Scirpus juncoides [14])

CC(C)C12CC(OCc3c(F)cccc3Cl)C(C)(CC1I)O2 (stereo not drawn) [1-1448, 5-[(2-chloro-6-fluoro-phenyl)methoxy]-2-iodo-1-isopropyl-4-methyl-7-oxabicyclo[2.2.1]heptane]
≥ 80%: inhibition at 1200 g/ha (Echinochloa crus-galli [1]) | inhibition at 75 g/ha [2] | inhibition at 75 g/ha (Digitaria ciliaris [3]) | inhibition at 75 g/ha (Echinochloa crus-galli [4]) | inhibition at 75 g/ha [5] | inhibition at 1200 g/ha (Digitaria ciliaris [6]) | inhibition at 75 g/ha (Digitaria ciliaris [7]) | inhibition at 75 g/ha (Echinochloa crus-galli [8]) | pest or weed control at 1200 g/ha [9] | pest or weed control at 1200 g/ha (Scirpus juncoides [10]) | inhibition at 1200 g/ha (Digitaria ciliaris [11]) | inhibition at 1200 g/ha (Echinochloa crus-galli [12]) | inhibition at 1200 g/ha [13] | inhibition at 1200 g/ha (Scirpus juncoides [14])

CC(C)C12CC(OCc3ccccc3C#N)C(C)(CC1I)O2 (stereo not drawn) [1-1436, 2-[(5-iodo-1-methyl-4-isopropyl-7-oxabicyclo[2.2.1]heptan-2-yl)oxymethyl]benzonitrile]
≥ 80%: inhibition at 1200 g/ha (Echinochloa crus-galli [1]) | inhibition at 75 g/ha [2] | inhibition at 75 g/ha (Digitaria ciliaris [3]) | inhibition at 75 g/ha (Echinochloa crus-galli [4]) | inhibition at 75 g/ha [5] | inhibition at 1200 g/ha (Digitaria ciliaris [6]) | inhibition at 75 g/ha (Digitaria ciliaris [7]) | inhibition at 75 g/ha (Echinochloa crus-galli [8]) | pest or weed control at 1200 g/ha [9] | pest or weed control at 1200 g/ha (Scirpus juncoides [10]) | inhibition at 1200 g/ha (Digitaria ciliaris [11]) | inhibition at 1200 g/ha (Echinochloa crus-galli [12]) | inhibition at 1200 g/ha [13] | inhibition at 1200 g/ha (Scirpus juncoides [14])

COc1ccccc1CO[C@@H]1C[C@]2(C(C)C)O[C@@]1(C)C[C@@H]2Cl [1-11, (1R,2S,4S,5R)-2-chloro-1-isopropyl-5-[(2-methoxyphenyl)methoxy]-4-methyl-7-oxabicyclo[2.2.1]heptane]
≥ 80%: inhibition at 1200 g/ha (Echinochloa crus-galli [1]) | inhibition at 75 g/ha [2] | inhibition at 75 g/ha (Digitaria ciliaris [3]) | inhibition at 75 g/ha (Echinochloa crus-galli [4]) | inhibition at 75 g/ha [5] | inhibition at 1200 g/ha (Digitaria ciliaris [6]) | inhibition at 75 g/ha (Digitaria ciliaris [7]) | inhibition at 75 g/ha (Echinochloa crus-galli [8]) | pest or weed control at 1200 g/ha [9] | pest or weed control at 1200 g/ha (Scirpus juncoides [10]) | inhibition at 1200 g/ha (Digitaria ciliaris [11]) | inhibition at 1200 g/ha (Echinochloa crus-galli [12]) | inhibition at 1200 g/ha [13] | inhibition at 1200 g/ha (Scirpus juncoides [14])
